Experiment [1] addresses T1, cyclin D1/cdk 4 enzyme (Homo sapiens, UniProt P11802).
T1 construct: made in house; host or cells: Sf9 insect cells, recombinant baculovirus
Put plainly: CDK4 ELISA kinase assay (phospho-Rb ser 795 detection). Format: biochemical. The gist of the method: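 Screening was done at 10 ug/ml compound. Each partially purified cyclin/CDK complex, produced in baculovirus-infected Sf9 cells, phosphorylated a coated GST-Rb C-terminal fragment with 200 μM ATP, and Ser795 phosphorylation was quantified by HRP-ELISA at 450 nm.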
For orientation: An ELISA detects its analyte on a solid surface through an enzyme-linked reagent.

The target of experiment [2] is T2, cyclin B/CDK1 enzyme (Homo sapiens, UniProt P06493).
T2 construct: purchased New England BioLabs; host or cells: Sf9 insect cells, recombinant baculovirus
Put plainly: CDK1 ELISA kinase assay (phospho-Rb ser 795 detection). Format: biochemical. As for the experimental part: • 1. High-binding ELISA microtiter plates (Costar) were coated with 40 μl of the kinase substrate (GST fusion of C-terminal fragment of the retinoblastoma susceptibility gene product) diluted to 10 μg/ml in tris-buffered saline (TBS), overnight at 4° C. • 2. Non-specific binding sites were blocked for 1 hour at 4° C. with Superblock in TBS (Pierce), and the plates rinsed with water. • 3. For the screen, 1.5 μl of test compound (200 μg/ml stock in 20% DMSO/20 mM HEPES, pH 7.5) was added to each well. Final dose of the test compound in the assay was 10 ug/ml. […] The kinase reaction (30 μl) was dispensed into each well. Reactions contained 200 μM ATP, 0.5 mg/ml bovine serum albumin (BSA; Sigma), and 0.5 μl partially purified cyclin D1/cdk 4 enzyme*. The enzyme complex is expressed in insect cells (Sf9) infected with recombinant baculovirus and partially purified using ammonium sulfate fractionation. Reaction volumes were adjusted to 30 μl with kinase assay buffer (50 mM HEPES, pH 7.5, 10 mM MgCl2, 5% glycerol, 10 mM 2-mercaptoethanol). • *: For CDK2 assay, 1.0 μl cyclin E/CDK2 enzyme (diluted 1:1000 in kinase assay buffer) was used. The enzyme is isolated from insect cells (Sf9) infected with recombinant baculovirus and partially purified using ammonium sulfate fractionation. For CDK1 assay, 0.08 μl cyclin B/CDK1 enzyme [New England BioLabs; the enzyme is isolated from insect cells (Sf9) infected with recombinant baculovirus carrying human cdc 2 and human cyclin B] was used.
[…] • 5. Plates were incubated at 30° C. for 1 hour. • 6. The reaction mixture was removed by aspiration and replaced with 250 μl TBS containing 0.1% Tween-20 and 5% nonfat dry milk (blocking buffer). The plates were incubated at 4° C. for 1 hour. • 7. The blocking buffer was removed and replaced with 50 μl of the primary antibody [anti-phospho-Rb ser 795 (New England BioLabs) diluted 1:1000 in blocking buffer]. Incubation was at 4° C. for 16-20 hours. • 8. The wells were rinsed 3 times with 250 μl of TBS containing 0.1% Tween-20 followed by the addition of 50 μl of secondary antibody [anti-rabbit IgG conjugated to horseradish peroxidase (Amersham Life Science) diluted 1:1000 in blocking buffer]. • 9. After a 1 hour incubation at room temperature, the wells were rinsed 3 times with 250 μl of TBS/0.1% Tween 20. • 10. TMB (3,3′,5,5′-tetramethylbenzidine dihydrochloride) substrate solution (100 μl; Pierce) was added to each well and the color development reaction allowed to proceed 5-10 minutes at room temperature with shaking. The reaction was stopped by the addition of 2N sulfuric acid (100 μl) and the absorbance values read at 450 nm in a microplate reader (Molecular Devices). Analysis of Results: • 1. The percentage of the absorbance value in wells containing the test compound relative to control wells (no test agent) was determined. • 2. IC50 values of selected compounds were determined from inhibition curves, after subtracting background values (no substrate).

In experiment [3] the test system is BT474. Put plainly: Cytotoxicity assay (SRB), BT474. Format: cell-based. To be noted: Homo sapiens, BT-474, 144 h, read-out: In Vitro Cellular Activity IC50 BT474. The gist of the method:
(§1)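 Plate cells, let them attach overnight, add compound dilutions in RPMI 1640/5% FBS, and incubate 3 days (BT474 6 days). Then fix with TCA, stain with SRB, dissolve the dye in Tris and read at 540 nm.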

The subject of experiment [4] is HCT-116. Put plainly: Cytotoxicity assay (SRB), HCT-116. Format: cell-based. Conditions: Homo sapiens, HCT-116, 72 h, read-out: In Vitro Cellular Activity IC50 HCT116. Summed up:
as §1

Experiment [5] has as its system LoVo. Put plainly: Cytotoxicity assay (SRB), LoVo. Format: cell-based. To be noted: Homo sapiens, LoVo, 72 h, read-out: In Vitro Cellular Activity IC50 LOVO. The gist of the method:
as §1

The test system of experiment [6] is MCF-7. Description: Cytotoxicity assay (SRB), MCF-7. Format: cell-based. To be noted: Homo sapiens, MCF7, 72 h, read-out: In Vitro Cellular Activity IC50 MCF-7. Summed up:
as §1

Where [7] appears, read: In Vitro Enzyme Assays, 200 μM ATP, read-out: CDK4 IC50.
Setting [8] is: In Vitro Enzyme Assays, read-out: CDK1 IC50.

pIC50: −log10 of the molar value. Where two headings read alike, the source gives them in different places. Bounds are passed on as bounds.

T2 sequence (P06493 whole entry): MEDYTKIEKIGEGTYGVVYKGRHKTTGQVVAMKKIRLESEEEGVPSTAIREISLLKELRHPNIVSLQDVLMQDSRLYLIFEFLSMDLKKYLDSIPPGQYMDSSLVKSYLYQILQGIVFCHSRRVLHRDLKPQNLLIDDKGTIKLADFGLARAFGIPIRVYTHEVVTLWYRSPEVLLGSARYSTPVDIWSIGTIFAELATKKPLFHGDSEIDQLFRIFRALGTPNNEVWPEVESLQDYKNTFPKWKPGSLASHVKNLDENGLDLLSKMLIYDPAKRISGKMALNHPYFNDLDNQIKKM
T2 sequence (P14635 whole entry partner): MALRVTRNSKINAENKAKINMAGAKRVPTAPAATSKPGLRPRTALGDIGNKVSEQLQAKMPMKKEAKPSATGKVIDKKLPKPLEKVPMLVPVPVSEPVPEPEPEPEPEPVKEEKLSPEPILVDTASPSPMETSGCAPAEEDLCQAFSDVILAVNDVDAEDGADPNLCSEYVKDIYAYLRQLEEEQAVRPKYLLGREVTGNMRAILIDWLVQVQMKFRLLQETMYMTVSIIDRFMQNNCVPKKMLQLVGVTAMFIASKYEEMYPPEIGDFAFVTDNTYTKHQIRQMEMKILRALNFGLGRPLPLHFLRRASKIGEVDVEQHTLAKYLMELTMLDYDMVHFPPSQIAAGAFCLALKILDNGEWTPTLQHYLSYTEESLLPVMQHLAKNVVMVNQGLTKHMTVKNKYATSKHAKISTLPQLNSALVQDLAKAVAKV
T1 sequence (P11802 whole entry, species assumed): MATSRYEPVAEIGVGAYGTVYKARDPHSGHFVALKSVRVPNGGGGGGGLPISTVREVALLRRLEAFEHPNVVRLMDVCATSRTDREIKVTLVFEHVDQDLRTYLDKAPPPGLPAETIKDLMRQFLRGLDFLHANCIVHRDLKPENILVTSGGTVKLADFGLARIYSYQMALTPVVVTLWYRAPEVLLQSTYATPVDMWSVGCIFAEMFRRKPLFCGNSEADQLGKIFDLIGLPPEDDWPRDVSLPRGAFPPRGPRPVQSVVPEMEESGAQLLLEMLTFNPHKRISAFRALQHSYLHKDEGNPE
T1 sequence (P24385 whole entry partner, species assumed): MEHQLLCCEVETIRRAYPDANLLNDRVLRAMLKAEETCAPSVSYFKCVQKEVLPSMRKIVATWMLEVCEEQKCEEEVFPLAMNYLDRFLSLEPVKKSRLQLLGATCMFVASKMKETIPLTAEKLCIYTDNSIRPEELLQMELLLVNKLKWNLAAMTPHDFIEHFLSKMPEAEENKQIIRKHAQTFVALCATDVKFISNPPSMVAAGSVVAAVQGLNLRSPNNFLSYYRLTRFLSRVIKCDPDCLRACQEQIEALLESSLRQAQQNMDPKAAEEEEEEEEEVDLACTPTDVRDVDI

The pIC50 is the IC50 on a negative log10 scale, so that one unit is a factor of ten. For `O=C1NC(=O)c2ccc(-c3ccc(Cl)cc3)cc2/C1=C/Nc1ccc(CN2CCCCC2)cc1` [Example 111, (4Z)-6-(4-Chlorophenyl)-4-({[4-(piperidin-1-ylmethyl)phenyl]amino}methylene)isoquinoline-1,3(2H,4H)-dione], the pIC50 in experiment [1] (setting [7]) is 4.71; in experiment [2] (setting [8]), < 4.30; in experiment [3] (BT474 cells, SRB, 6 days) it was 5.55; in experiment [4] (HCT116 cells, SRB, three days) it was 5.92; in experiment [5] (LoVo cells, SRB, three days) it was 5.92; in experiment [6] (MCF-7 cells, SRB, three days), 5.68.
Turning to `COc1ccc(-c2ccc3c(c2)/C(=C/Nc2ccc(CN4CCCCC4)cc2)C(=O)NC3=O)cc1` [Example 116, (4Z)-6-(4-Methoxyphenyl)-4-({[4-(piperidin-1-ylmethyl)phenyl]amino}methylene)-isoquinoline-1,3(2H,4H)-dione], the pIC50 was < 4.30 in experiment [2] (setting [8]); 5.55 in experiment [3] (BT474 cells, SRB, 6 days); 5.89 in experiment [4] (HCT116 cells, SRB, three days); 5.55 in experiment [5] (LoVo cells, SRB, three days); 5.49 in experiment [6] (MCF-7 cells, SRB, three days).
Consider `O=C1NC(=O)c2ccc(N3CCCCC3)cc2/C1=C/Nc1ccc(CN2CCCCC2)cc1` [Example 118, (4Z)-6-Piperidin-1-yl-4-({[4-(piperidin-1-ylmethyl)phenyl]amino}methylene)isoquinoline-1,3(2H,4H)-dione], for which the negative logarithm of the IC50 (pIC50) was < 4.30 in experiment [2] (setting [8]); 5.40 in experiment [3] (BT474 cells, SRB, 6 days); 5.57 in experiment [4] (HCT116 cells, SRB, three days); 5.49 in experiment [5] (LoVo cells, SRB, three days); 5.36 in experiment [6] (MCF-7 cells, SRB, three days).
Regarding `O=C1NC(=O)c2ccc(Br)cc2/C1=C/NCc1ccc(OCCO)c(O)c1` [Example 139, (4Z)-6-Bromo-4-({[3-hydroxy-4-(2-hydroxyethoxy)benzyl]amino}methylene)isoquinoline-1,3(2H,4H)-dione], the pIC50 is 7.40 in experiment [1] (setting [7]); < 4.30 in experiment [2] (setting [8]); 4.82 in experiment [3] (BT474 cells, SRB, 6 days); < 4.30 in experiment [4] (HCT116 cells, SRB, three days); 4.59 in experiment [5] (LoVo cells, SRB, three days); < 4.30 in experiment [6] (MCF-7 cells, SRB, three days).
Consider `C=CCOc1ccc(CN/C=C2\C(=O)NC(=O)c3ccc(Br)cc32)cc1O` [Example 149, (4Z)-4-({[4-(Allyloxy)-3-hydroxybenzyl]amino}methylene)-6-bromoisoquinoline-1,3(2H,4H)-dione], for which the pIC50 in experiment [1] (setting [7]) is 6.48; in experiment [2] (setting [8]) it was < 4.30; in experiment [3] (BT474 cells, SRB, 6 days), 4.92; in experiment [4] (HCT116 cells, SRB, three days), 4.74; in experiment [5] (LoVo cells, SRB, three days), 4.57; in experiment [6] (MCF-7 cells, SRB, three days) it was < 4.30.
On to `C[C@@H]1CN(c2ccc(N/C=C3\C(=O)NC(=O)c4ccc(I)cc43)cc2)C[C@H](C)N1` [Example 216, (4Z)-4-({[4-(3,5-Dimethylpiperazin-1-yl)phenyl]amino}methylene)-6-iodoisoquinoline-1,3(2H,4H)-dione], for which the pIC50 in experiment [2] (setting [8]) is < 4.30; in experiment [3] (BT474 cells, SRB, 6 days), 5.96; in experiment [5] (LoVo cells, SRB, three days) it was 5.89.
Take `CC1CN(c2ccc(N/C=C3\C(=O)NC(=O)c4ccc(I)cc43)cc2)CCN1C` (stereo not shown) [Example 248, (4Z)-4-({[4-(3,4-Dimethylpiperazin-1-yl)phenyl]amino}methylene)-6-iodoisoquinoline-1,3(2H,4H)-dione]: the pIC50 in experiment [1] (setting [7]) was 5.57; in experiment [2] (setting [8]) it was < 4.30; in experiment [3] (BT474 cells, SRB, 6 days) it was 5.52; in experiment [5] (LoVo cells, SRB, three days) it was 5.55.
`CN1CCN(c2ccc(NC=C3C(=O)NC(=O)c4ccc(-c5ccccc5)cc43)cc2)CC1` [Example 831, 4-{[4-(4-Methyl-piperazin-1-yl)-phenylamino]-methylene}-6-phenyl-4H-isoquinoline-1,3-dione]: the pIC50 in experiment [1] (In Vitro Enzyme Assay, cyclin D1/cdk 4, read-out: CDK4 IC50) was 6.72; in experiment [2] (In Vitro Enzyme Assay, cyclin B/CDK1, read-out: CDK1 IC50), < 4.30; in experiment [3] (BT474 cells, 6 days, SRB) it was 5.49; in experiment [5] (LoVo cells, 3 days, SRB), 5.55.
On to `O=C1NC(=O)c2ccc([N+](=O)[O-])cc2/C1=C/Nc1ccc(CN2CCCCC2)cc1` [compound 42], for which the pIC50 in experiment [2] (setting [8]) was < 4.30; in experiment [3] (BT474 cells, SRB, 6 days), 5.40; in experiment [4] (HCT116 cells, SRB, three days), 5.52; in experiment [5] (LoVo cells, SRB, three days) it was 5.23; in experiment [6] (MCF-7 cells, SRB, three days) it was 5.12.
Take `CN1CCN(c2ccc(N/C=C3\C(=O)NC(=O)c4ccc(-n5cccc5)cc43)cc2)CC1` [compound 60]: the pIC50 in experiment [2] (setting [8]) was < 4.30; in experiment [3], 5.70; in experiment [4] it was 5.82; in experiment [5] it was 5.70; in experiment [6], 5.64.
